Reference: patent US20070021360A1, “Compositions, formulations and kit with anti-sense oligonucleotide and anti-inflammatory steroid and/or obiquinone for treatment of respiratory and lung disesase” (priority 2001, published 2007)

Columns and labels:
[1] = system: HT-29 SF cells; test: DHEA effect on cell cycle distribution (flow cytometry); type: cell-based, human; conditions: 25, 50, or 200 μM DHEA; 24, 48, 72 hours
Experimental: Cells were plated at 10^5/60-rm dish in duplicate. […] Cultures were trypsinized following […] and fixed and stained using a modification of a procedure of Bauer et al., Cancer Res., 46, 3173-3178 (1986). Briefly, cells were collected by centrifugation and resuspended in cold phosphate-buffered saline. Cells were fixed in 70% ethanol, washed, and resuspended in phosphate-buffered saline.
After 24, 48, and 72 hours, cells were harvested, fixed in ethanol, and stained with propidium iodide, and the DNA content/cell was determined by flow cytometric analysis. The percentage of cells in G1, S, and G2M phases was calculated using the Cellfit cell cycle analysis program. S phase is marked by a quadrangle for clarity. Representative histograms from duplicate determinations are shown. The experiment was repeated three times.
A transient increase in G2M phase cells was apparent after 48 hours.

[2] = system: G6PDH; test: Enzymatic assay of purified G6PDH; conditions: in vitro; compared to control
Experimental: All experiments were repeated 4 times.
A second group was added different concentrations of a CoQ of long side chain (in triplicate), and a third group received a CoQ of short side chain (in triplicate), both at various doses in the μM range.
The reaction was started by addition of the enzyme, and the increase in absorbance at 340 nm was measured for 5 minutes. Each data point was conducted in triplicate, and the full experiment was repeated 4 times.

[3] = system: HT-29 SF cells; test: DHEA effect on cell growth (Coulter counter)
Experimental: Cell cultures, HT-29 SF cells, which represent a subline of HY-29 cells (ATCC, Rockville, Md.) and are adapted for growth in completely defined serum-free PC-1 medium (Ventrex, Portland, Me.), were obtained. Stock cultures were maintained in this medium at 37° in a humidified atmosphere containing 5% CO2.

## C[C@]12CC[C@H](O)CC1=CC[C@@H]1[C@@H]2CC[C@]2(C)C(=O)CC[C@@H]12 [DHEA, 3β-hydroxyandrost-5-en-17-one]
[1]
  effect on cell cycle distribution: G1 block
[2]
  inhibition of activity of purified G6PDH: 72%
[3]; 0-200 μM DHEA, 0-72 hours
  inhibition of growth: time- and dose-dependent inhibition of growth
[3]; 12.5 μM DHEA
  exposure time after which cell number was reduced compared to controls: 72 h
[3]; 200 μM DHEA
  exposure time after which cell number was reduced compared to controls: 24 h
[3]; 25 or 50 μM DHEA
  exposure time after which cell number was reduced compared to controls: 48 h
